Source: US20220031800A1, “PEPTIDES FOR TREATING NON-EXUDATIVE MACULAR DEGENERATION AND OTHER DISORDERS OF THE EYE” (Allegro Pharmaceuticals, LLC, priority 2019, published 2022)
Square brackets hold non-standard residues; d marks the D form. Peptide text beside a SMILES is read from it. Cya = N[C@@H](CS(=O)(=O)O)C(=O)O

Test system: study eye of subjects with intermediate non-exudative AMD
Experiment: SD-OCT Analysis 2 (thickness, volume, map coverage of retinal layers)
Format: in vivo, human
Experimental: Numerous study assessments were conducted at various time points throughout the study. Included among these study assessments were; refractive eye examinations, determinations of BCVA AND low-luminance BCVA, Lanthony D-15 color vision test, measurement of intraocular pressure (IOP), Indirect ophthalmoscopy/dilated fundus examinations and spectral-domain optical coherence tomography (SD-OCT). Also, blood and saliva samples were obtained from each subject for genetic analysis. The above-listed study assessments were performed at the time points indicated in Table 1, below: The OCT scans were analyzed by two (2) unrelated experts. In Analysis #2, the OCT images of study eyes were analyzed to determine mean thickness and mean volume of numerous retinal subfields and layer segments at baseline and at Week 12 for sham eyes and at baseline and at Week 32 for risuteganib eyes, to document any significant differences between groups of eyes based on baseline measurements or changes from baseline in those measurements. In addition to the quantitative analysis of OCT images, OCT Analysis #2 included qualitative assessment of the OCT images to identify GA, pseudodrusen, and disruption of the ELM and EZ layers. FIGS. 9A, 9B and 9C illustrate the level of varying pathology within the ELM based on quantitative mapping that were also assessed, with FIG. 9A (left) showing no ELM disruption, FIG. 9B (center) showing segmental disruption, and FIG. 9C showing diffuse disruption.

[1] = baseline to Week 32, risuteganib arm
[2] = baseline to Week 32, risuteganib arm, paired-eye analysis
[3] = baseline to Week 32, risuteganib nonresponder eyes
[4] = baseline to Week 32, risuteganib responder eyes
[5] = baseline to Week 32, risuteganib super-responder eyes
[6] = change from baseline at Week 32, Risuteganib Nonresponder eyes
[7] = change from baseline at Week 32, Risuteganib Responder eyes

C[C@@H](O)[C@H](NC(=O)[C@H](CS(=O)(=O)O)NC(=O)CNC(=O)[C@H](CCCNC(=N)N)NC(=O)CN)C(=O)N1CCC[C@H]1C(=O)O [risuteganib, Glycyl-L-arginylglycyl-3-sulfo-L-alanyl-L-threonyl-L-proline] (H-GRG[Cya]TP-OH)
Change in ELM-RPE mid subfield volume [1]: −0.002 mm^3
Change in ONL-RPE central subfield volume [1]: −0.005 mm^3
Change in ONL-RPE mid subfield volume [1]: −0.020 mm^3
Change in mean ONL-RPE mid subfield thickness [1]: −6.441 μm
Change in mean total retinal mid subfield thickness [1]: −2.548 μm
Change in total retinal mid subfield volume [1]: −0.008 mm^3
Difference in map coverage, 0 μm RPE-BM [1]: 1.282%
Difference in map coverage, 50 μm RPE-BM [1]: −2.644%
Difference in map coverage, 150 μm RPE-BM [1]: 2.739%
Change in mean ELM-RPE central subfield thickness [2]: −2.912 μm
Change in mean ONL-RPE central subfield thickness [2]: −7.216 μm
Change in ONL-RPE mid subfield volume [3]: −0.020 mm^3
Change in RPE-BM volume [3]: 0.037 mm^3
Change in mean ONL-RPE mid subfield thickness [3]: −6.320 μm
Change in mean total retinal central subfield thickness [3]: −5.981 μm
Change in mean total retinal mid subfield thickness [3]: −4.046 μm
Change in total retinal central subfield volume [3]: −0.004 mm^3
Change in total retinal mid subfield volume [3]: −0.012 mm^3
Change in total retinal volume [3]: 0.091 mm^3
Difference in map coverage, <10 μm EZ [3]: 1.332%
Difference in map coverage, <20 μm EZ [3]: 1.288%
Change in ELM-RPE central subfield volume [4]: −0.002 mm^3
Change in RPE-BM volume [4]: −0.049 mm^3
Difference in map coverage, 50 μm RPE-BM [4]: −3.494%
Difference in map coverage, 150 μm RPE-BM [4]: 3.335%
Change in mean ELM-RPE central subfield thickness (baseline to Week 32, risuteganib responder eyes, paired-eye analysis): −3.102 μm
Change in ELM-RPE central subfield volume [5]: −0.003 mm^3
Difference in map coverage, 150 μm RPE-BM [5]: 2.943%
Change in mean ELM-RPE central subfield thickness (baseline to Week 32, risuteganib super-responder eyes, paired-eye analysis): −3.461 μm
Change in mean thickness, ELM-EZ central subfield [6]: −1.332 μm
Change in mean thickness, ELM-EZ mid subfield [6]: 0.754 μm
Change in mean thickness, ELM-RPE central subfield [6]: −2.722 μm
Change in mean thickness, ELM-RPE foveal center [6]: −12.189 μm
Change in mean thickness, ELM-RPE mid subfield [6]: −1.044 μm
Change in mean thickness, EZ-RPE central subfield [6]: −1.390 μm
Change in mean thickness, EZ-RPE foveal center [6]: −1.789 μm
Change in mean thickness, EZ-RPE mid subfield [6]: −1.798 μm
Change in mean thickness, Inner retina central subfield [6]: 1.896 μm
Change in mean thickness, Inner retina mid subfield [6]: 2.274 μm
Change in mean thickness, ONL-EZ central subfield [6]: −6.486 μm
Change in mean thickness, ONL-EZ mid subfield [6]: −4.522 μm
Change in mean thickness, ONL-RPE central subfield [6]: −7.877 μm
Change in mean thickness, ONL-RPE foveal center [6]: −7.626 μm
Change in mean thickness, ONL-RPE mid subfield [6]: −6.320 μm
Change in mean thickness, RPE-BM central subfield [6]: −0.118 μm
Change in mean thickness, RPE-BM foveal center [6]: −3.740 μm
Change in mean thickness, RPE-BM mid subfield [6]: 1.114 μm
Change in mean thickness, Total retinal central subfield [6]: −5.981 μm
Change in mean thickness, Total retinal foveal center [6]: −9.112 μm
Change in mean thickness, Total retinal mid subfield [6]: −4.046 μm
Change in volume, ELM-EZ central subfield [6]: −0.001 mm^3
Change in volume, ELM-EZ mid subfield [6]: 0.002 mm^3
Change in volume, ELM-RPE [6]: 0.009 mm^3
Change in volume, ELM-RPE central subfield [6]: −0.002 mm^3
Change in volume, ELM-RPE mid subfield [6]: −0.003 mm^3
Change in volume, EZ-RPE [6]: 0.005 mm^3
Change in volume, EZ-RPE central subfield [6]: −0.001 mm^3
Change in volume, EZ-RPE mid subfield [6]: −0.006 mm^3
Change in volume, ONL-EZ central subfield [6]: −0.005 mm^3
Change in volume, ONL-EZ mid subfield [6]: −0.014 mm^3
Change in volume, ONL-RPE [6]: −0.026 mm^3
Change in volume, ONL-RPE central subfield [6]: −0.006 mm^3
Change in volume, ONL-RPE mid subfield [6]: −0.020 mm^3
Change in volume, RPE-BM [6]: 0.037 mm^3
Change in volume, RPE-BM central subfield [6]: 0.000 mm^3
Change in volume, RPE-BM mid subfield [6]: 0.004 mm^3
Change in volume, Total retinal [6]: 0.091 mm^3
Change in volume, Total retinal central subfield [6]: −0.004 mm^3
Change in volume, Total retinal mid subfield [6]: −0.012 mm^3
Map coverage, 0 μm EZ [6]: 1.469%
Map coverage, 0 μm RPE-BM [6]: 1.465%
Map coverage, 10 μm EZ [6]: 1.332%
Map coverage, 20 μm EZ [6]: 1.288%
Map coverage, 50 μm RPE-BM [6]: −1.794%
Map coverage, 150 μm RPE-BM [6]: 2.143%
Map coverage, 250 μm RPE-BM [6]: 0.000%
Change in mean thickness, ELM-EZ central subfield [7]: −2.322 μm
Change in mean thickness, ELM-EZ mid subfield [7]: −0.967 μm
Change in mean thickness, ELM-RPE central subfield [7]: −3.102 μm
Change in mean thickness, ELM-RPE foveal center [7]: 0.000 μm
Change in mean thickness, ELM-RPE mid subfield [7]: −2.141 μm
Change in mean thickness, EZ-RPE central subfield [7]: −0.779 μm
Change in mean thickness, EZ-RPE foveal center [7]: 0.975 μm
Change in mean thickness, EZ-RPE mid subfield [7]: −1.174 μm
Change in mean thickness, Inner retina central subfield [7]: 5.864 μm
Change in mean thickness, Inner retina mid subfield [7]: 5.512 μm
Change in mean thickness, ONL-EZ central subfield [7]: −5.775 μm
Change in mean thickness, ONL-EZ mid subfield [7]: −5.386 μm
Change in mean thickness, ONL-RPE central subfield [7]: −6.555 μm
